Measured values from US9567347B2, “Use of small molecule inhibitors targeting the interaction between RAC GTPase and p67(phox)” (CHILDREN'S HOSPITAL MEDICAL CENTER, priority 2012, dated 2017).

Key:
[1] = test system: fMLP-activated primary murine neutrophils; assay: Nitroblue tetrazolium (NBT) assay; format: cell-based, mouse; details: 10 μM, FIG. 3C
Description: Primary neutrophils from mouse bone marrow were subjected to fMLP stimulation in the presence or absence of various chemicals for 5 min. Cells were stained for NBT activity as previously described in the incorporated materials of Filippi et al. (2004) to reveal relative ROS production.
To complement the DCFDA based FACS analysis and the luminol chemiluminescence method, nitroblue tetrazolium (NBT) assays were performed in fMLP-activated primary murine neutrophils (FIG. 3C).
The NBT assay was performed in primary murine neutrophils to measure ROS neutrophil production. […] Each compound was used at 10 μM.

xanthine oxidase = target: T1, xanthine oxidase (Bos taurus, UniProt P80457); assay: xanthine/xanthine oxidase assay; format: biochemical; details: 10 μM, 30 min at room temperature
T1 construct: purchased Sigma Aldrich
Description: Chemiluminescence was measured using GloMax®-96 Microplate Luminometer (Promega) (Tarpey et al., (2004) Am J Physiol Regul Integr Comp Physiol 286: R431-R444, hereby incorporated by reference in its entirety). The generation of […] by the xanthine/xanthine oxidase was performed in PBS supplemented with xanthine oxidase (0.004 U), HRP (0.005 U·mL^−1) and L012, following the protocol described in Wind et al., (2010) Br J Pharmacol. 161, 885-898, hereby incorporated by reference in its entirety. The reaction was started by the addition of xanthine (0.5 mM).
To test if the inhibitors are specific for the NOX2 enzyme, a xanthine/xanthine oxidase assay was performed. Specifically, vehicle, NAC (10 mM), […] or Phox-I2 (10 μM) was added to the assay, and incubated for 30 min at room temperature. The results were calculated by taking superoxide production in the absence of inhibitors as 100 and value obtained with NAC, Pghox-I1 or Phox-I2 was expressed as relative %. The data shown in FIG. 6 represent those from three separate experiments.

dHL-60 cells [2] = assay: DCFDA ROS assay after wash and recovery (affinity assay); format: cell-based, human; details: 2 hr treatment, recovery 4 hr or 2 hr
Description: (§1) (A) Apoptosis analysis by FACS of HL-60 cells treated with compound or vehicle control for 2 hours prior to 7-AAD and Annexin V staining. (B) HL-60 cells from A were harvested and lysates were immunoblotted for levels of pPAK, and actin was used as a control for loading. (C) F-actin reorganization in freshly isolated fMLP-stimulated primary murine neutrophils was analyzed. […] Cells were exposed to a 10 μM dose of Phox-I1, Phox-I2, and Analog 13, and 200 nM nocodazole. (D) The effect of Phox-I on NOX4 mediated ROS production was tested in primary murine neutrophils transfected with a NOX4 expressing plasmid. 10 μM Phox-I1 was applied to the cells for 30 min prior to ROS assay by luminol chemiluminescence in the presence of HRP. The fMLP-stimulated ROS activity in the presence or absence of 10 uM Phox-I1 was measured in parallel. (E) The antioxidant abilities of these lead compounds were tested by prestimulating dHL-60 cells with fMLP for 30 minutes prior to treatment with Phox-I1 or Phox-I2. Levels of superoxide were analyzed by DCFDA assay and FACS. NAC, apocyanin, DPI, and NSC23766 treated cells served as controls. (F) For affinity assay, DMSO-differentiated HL-60 cells were treated with standard effective dose of indicated compound for 2 hours, washed, and allowed to recover in normal media for 4 hours or 2 hours prior to fMLP stimulation and DCFDA ROS production assay by FACS analysis. (G) For stability assay, DMSO-differentiated HL-60 cells were treated with 20 μM dose of compound for the indicated time period prior to fMLP stimulation and DCFDA ROS production assay by FACS analysis.
Next, a stability experiment was performed to determine the duration of effectiveness of the compound in suppressing neutrophils. To analyze the relative affinities of these compounds for the p67^phox target in cells, DCFDA ROS production assays were performed in dHL-60 cells treated with compound for 2 hr followed by wash and recovery for 4 hr or 2 hr in normal media prior to ROS production analysis.

dHL-60 cells [3] = assay: stability in culture over time, DCFDA ROS assay; format: cell-based, human; details: 20 μM, 6 hr treatment window
Description: as §1, with “(F) For affinity assay, DMSO-differentiated HL-60 cells were treated with standard effective dose of indicated compound for 2 hours, washed, and allowed to recover in normal media for 4 hours or 2 hours prior to fMLP stimulation and DCFDA ROS production assay by FACS analysis. (G) For stability assay, DMSO-differentiated HL-60 cells were treated with 20 μM dose of compound for the indicated time period prior to fMLP stimulation and DCFDA ROS production assay by FACS analysis.” left out

T1 sequence (P80457 2-1332 limits assumed): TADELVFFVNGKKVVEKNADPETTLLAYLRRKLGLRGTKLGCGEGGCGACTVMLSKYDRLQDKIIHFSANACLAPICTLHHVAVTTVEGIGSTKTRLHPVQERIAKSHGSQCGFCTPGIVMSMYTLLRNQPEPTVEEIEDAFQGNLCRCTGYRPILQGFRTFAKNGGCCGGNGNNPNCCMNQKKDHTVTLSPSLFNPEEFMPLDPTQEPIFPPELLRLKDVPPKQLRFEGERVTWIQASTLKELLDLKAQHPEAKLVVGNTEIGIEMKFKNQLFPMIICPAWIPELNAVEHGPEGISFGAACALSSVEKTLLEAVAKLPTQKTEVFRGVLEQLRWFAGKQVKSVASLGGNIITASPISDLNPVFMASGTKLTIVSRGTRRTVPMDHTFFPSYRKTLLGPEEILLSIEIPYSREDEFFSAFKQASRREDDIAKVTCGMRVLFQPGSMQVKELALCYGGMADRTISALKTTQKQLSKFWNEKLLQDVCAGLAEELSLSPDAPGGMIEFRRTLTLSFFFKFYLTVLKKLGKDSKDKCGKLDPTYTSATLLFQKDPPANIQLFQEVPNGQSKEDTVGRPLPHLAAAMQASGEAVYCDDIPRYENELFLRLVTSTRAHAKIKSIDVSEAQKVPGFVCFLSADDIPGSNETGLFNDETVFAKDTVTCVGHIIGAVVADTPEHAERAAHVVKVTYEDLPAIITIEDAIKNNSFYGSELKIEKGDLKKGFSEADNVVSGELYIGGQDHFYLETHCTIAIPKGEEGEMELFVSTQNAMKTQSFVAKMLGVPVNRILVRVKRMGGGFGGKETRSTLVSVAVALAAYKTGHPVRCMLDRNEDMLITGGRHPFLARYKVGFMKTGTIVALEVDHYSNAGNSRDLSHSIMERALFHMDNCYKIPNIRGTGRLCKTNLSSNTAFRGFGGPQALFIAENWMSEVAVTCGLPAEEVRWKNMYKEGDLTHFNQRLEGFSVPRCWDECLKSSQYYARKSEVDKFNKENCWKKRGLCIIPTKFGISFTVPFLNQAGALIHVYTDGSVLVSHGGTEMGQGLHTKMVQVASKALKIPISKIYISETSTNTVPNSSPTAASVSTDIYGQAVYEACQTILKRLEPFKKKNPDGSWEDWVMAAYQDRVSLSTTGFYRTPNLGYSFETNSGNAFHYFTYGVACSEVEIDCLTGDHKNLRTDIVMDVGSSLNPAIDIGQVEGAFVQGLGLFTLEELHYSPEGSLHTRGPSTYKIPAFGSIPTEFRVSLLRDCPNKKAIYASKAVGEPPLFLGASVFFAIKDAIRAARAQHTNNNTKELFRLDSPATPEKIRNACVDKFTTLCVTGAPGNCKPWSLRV

Row | xanthine oxidase-mediated ROS production (xanthine oxidase) | SMILES | superoxide production (NBT) [1] | ROS inhibition after wash (dHL-60 cells [2]) | efficacy of ROS inhibition over time in culture (dHL-60 cells [3])
1 | does not affect | O=[N+]([O-])c1cccc(C2Nc3ccc([N+](=O)[O-])cc3C3C=CCC32)c1 (centres unmarked) [Phox-I2] | heightened | did not display effective ROS inhibition | retained some efficacies
2 | does not affect | COc1ccc2c(c1)C1C=C(c3ccccc3)NN1C(c1cccc([N+](=O)[O-])c1)O2 (centres unmarked) [Phox-I1] | significant blockade of superoxide production | still evident | no significant change in efficacy
